Results as given in ChEMBL document CHEMBL3885861, “Open TG-GATES”.

Organism: Rattus norvegicus
Experiment: Open TG-GATES - Regimen: Single
Format: toxicity, organism-based, Sprague-Dawley
Design: regimen Single, gender Male, age 6 weeks
Conditions: in vivo, po, route gavage; for gamma-GTP / ALP / AST / BUN / CRE / Ca / Cl / DBIL / GLC / IP / K / LDH / Na / PL / RALB / TBIL / TC / TG / TP: tissue Plasma; for APTT / Bas / Eos / Fbg / Ht / MCH / MCHC / MCV / Mono / PT / Plat / RBC / Ret / WBC: tissue Blood; for KIDNEY_L / KIDNEY_R / KIDNEY_TOTAL: tissue Kidney; for LIVER: tissue Liver

For `CC(=O)Nc1nnc(S(N)(=O)=O)s1` [ACETAZOLAMIDE], the gamma-GTP (0 mg/kg, 24 h, dose level Control) was 2.2 IU/L, the TERMINAL_BW (60 mg/kg, 3 h, dose level Low) was 208.4 g and the APTT (60 mg/kg, 3 h, dose level Low) was 22.2 s. For the same molecule, the Bas (60 mg/kg, 3 h, dose level Low) was 0%, the Eos (60 mg/kg, 3 h, dose level Low) was 1% and the Fbg (60 mg/kg, 3 h, dose level Low) was 313.4 mg/dL. For the same molecule, the Ht (60 mg/kg, 3 h, dose level Low) was 40.8%, the MCH (60 mg/kg, 3 h, dose level Low) was 21.4 pg and the MCHC (60 mg/kg, 3 h, dose level Low) was 32.1%. For the same molecule, the MCV (60 mg/kg, 3 h, dose level Low) was 66.9 fL, the Mono (60 mg/kg, 3 h, dose level Low) was 1.6% and the PT (60 mg/kg, 3 h, dose level Low) was 16.8 s. The Plat (60 mg/kg, 3 h, dose level Low) was 125.7 x10_4/uL, the RBC (60 mg/kg, 3 h, dose level Low) was 610.4 x10_4/ul and the Ret (60 mg/kg, 3 h, dose level Low) was 8.6%. The WBC (60 mg/kg, 3 h, dose level Low) was 69.8 x10_2/uL, the KIDNEY_L (60 mg/kg, 3 h, dose level Low) was 0.9 g and the KIDNEY_R (60 mg/kg, 3 h, dose level Low) was 1 g. For the same molecule, the KIDNEY_TOTAL (60 mg/kg, 3 h, dose level Low) was 1.9 g, the LIVER (60 mg/kg, 3 h, dose level Low) was 9.5 g and the ALP (60 mg/kg, 3 h, dose level Low) was 1527.8 IU/L. For the same molecule, the AST (60 mg/kg, 3 h, dose level Low) was 75.8 IU/L, the BUN (60 mg/kg, 3 h, dose level Low) was 12.2 mg/dL and the CRE (60 mg/kg, 3 h, dose level Low) was 0.2 mg/dL. The Ca (60 mg/kg, 3 h, dose level Low) was 11.1 mg/dL, the Cl (60 mg/kg, 3 h, dose level Low) was 111.6 meq/L and the DBIL (60 mg/kg, 3 h, dose level Low) was 0 mg/dL. The GLC (60 mg/kg, 3 h, dose level Low) was 184.6 mg/dL, the IP (60 mg/kg, 3 h, dose level Low) was 9.6 mg/dL and the K (60 mg/kg, 3 h, dose level Low) was 3.9 meq/L. It also gave an LDH (60 mg/kg, 3 h, dose level Low) of 212.8 IU/L, a Na (60 mg/kg, 3 h, dose level Low) of 141.4 meq/L and a PL (60 mg/kg, 3 h, dose level Low) of 142.2 mg/dL. For the same molecule, the RALB (60 mg/kg, 3 h, dose level Low) was 3.4 g/dL, the TBIL (60 mg/kg, 3 h, dose level Low) was 0.018 mg/dL and the TC (60 mg/kg, 3 h, dose level Low) was 88 mg/dL. It also gave a TG (60 mg/kg, 3 h, dose level Low) of 28.2 mg/dL, a TP (60 mg/kg, 3 h, dose level Low) of 5.9 g/dL and a gamma-GTP (60 mg/kg, 3 h, dose level Low) of 1.4 IU/L. The TERMINAL_BW (60 mg/kg, 6 h, dose level Low) was 202.8 g, the APTT (60 mg/kg, 6 h, dose level Low) was 23 s and the Bas (60 mg/kg, 6 h, dose level Low) was 0%. It also gave an Eos (60 mg/kg, 6 h, dose level Low) of 1%, a Fbg (60 mg/kg, 6 h, dose level Low) of 336.6 mg/dL and a Ht (60 mg/kg, 6 h, dose level Low) of 42.5%. It also gave an MCH (60 mg/kg, 6 h, dose level Low) of 20.9 pg, an MCV (60 mg/kg, 6 h, dose level Low) of 65.6 fL and a Mono (60 mg/kg, 6 h, dose level Low) of 3%. It also gave a PT (60 mg/kg, 6 h, dose level Low) of 16.8 s, a Plat (60 mg/kg, 6 h, dose level Low) of 120.9 x10_4/uL and an RBC (60 mg/kg, 6 h, dose level Low) of 648 x10_4/ul. The Ret (60 mg/kg, 6 h, dose level Low) was 8.7%, the WBC (60 mg/kg, 6 h, dose level Low) was 98.5 x10_2/uL and the KIDNEY_L (60 mg/kg, 6 h, dose level Low) was 0.9 g. For the same molecule, the KIDNEY_R (60 mg/kg, 6 h, dose level Low) was 0.9 g, the KIDNEY_TOTAL (60 mg/kg, 6 h, dose level Low) was 1.8 g and the LIVER (60 mg/kg, 6 h, dose level Low) was 8.4 g. It also gave an ALP (60 mg/kg, 6 h, dose level Low) of 1445.8 IU/L, an AST (60 mg/kg, 6 h, dose level Low) of 72.8 IU/L and a BUN (60 mg/kg, 6 h, dose level Low) of 11.8 mg/dL. It also gave a CRE (60 mg/kg, 6 h, dose level Low) of 0.2 mg/dL, a Ca (60 mg/kg, 6 h, dose level Low) of 11 mg/dL and a Cl (60 mg/kg, 6 h, dose level Low) of 113 meq/L. The DBIL (60 mg/kg, 6 h, dose level Low) was 0 mg/dL, the GLC (60 mg/kg, 6 h, dose level Low) was 187.4 mg/dL and the IP (60 mg/kg, 6 h, dose level Low) was 9.6 mg/dL. It also gave a K (60 mg/kg, 6 h, dose level Low) of 4.2 meq/L, an LDH (60 mg/kg, 6 h, dose level Low) of 177.4 IU/L and a Na (60 mg/kg, 6 h, dose level Low) of 139.4 meq/L. For the same molecule, the PL (60 mg/kg, 6 h, dose level Low) was 138.2 mg/dL, the RALB (60 mg/kg, 6 h, dose level Low) was 3.3 g/dL and the TBIL (60 mg/kg, 6 h, dose level Low) was 0.024 mg/dL. The TC (60 mg/kg, 6 h, dose level Low) was 83 mg/dL, the TG (60 mg/kg, 6 h, dose level Low) was 27.2 mg/dL and the TP (60 mg/kg, 6 h, dose level Low) was 5.9 g/dL. The gamma-GTP (60 mg/kg, 6 h, dose level Low) was 1 IU/L, the TERMINAL_BW (60 mg/kg, 9 h, dose level Low) was 205.8 g and the APTT (60 mg/kg, 9 h, dose level Low) was 21.4 s. For the same molecule, the Bas (60 mg/kg, 9 h, dose level Low) was 0%, the Eos (60 mg/kg, 9 h, dose level Low) was 0.8% and the Fbg (60 mg/kg, 9 h, dose level Low) was 337.8 mg/dL. For the same molecule, the Ht (60 mg/kg, 9 h, dose level Low) was 41.7%, the MCH (60 mg/kg, 9 h, dose level Low) was 20.5 pg and the MCHC (60 mg/kg, 9 h, dose level Low) was 31.4%. The MCV (60 mg/kg, 9 h, dose level Low) was 65.2 fL, the Mono (60 mg/kg, 9 h, dose level Low) was 1.8% and the PT (60 mg/kg, 9 h, dose level Low) was 16.7 s. The Plat (60 mg/kg, 9 h, dose level Low) was 125.8 x10_4/uL, the RBC (60 mg/kg, 9 h, dose level Low) was 640.2 x10_4/ul and the Ret (60 mg/kg, 9 h, dose level Low) was 8.7%. The WBC (60 mg/kg, 9 h, dose level Low) was 76.9 x10_2/uL, the KIDNEY_L (60 mg/kg, 9 h, dose level Low) was 0.9 g and the KIDNEY_R (60 mg/kg, 9 h, dose level Low) was 0.9 g. For the same molecule, the KIDNEY_TOTAL (60 mg/kg, 9 h, dose level Low) was 1.8 g, the LIVER (60 mg/kg, 9 h, dose level Low) was 8.5 g and the ALP (60 mg/kg, 9 h, dose level Low) was 1425.8 IU/L. It also gave an AST (60 mg/kg, 9 h, dose level Low) of 59.8 IU/L, a BUN (60 mg/kg, 9 h, dose level Low) of 13.8 mg/dL and a CRE (60 mg/kg, 9 h, dose level Low) of 0.2 mg/dL. The Ca (60 mg/kg, 9 h, dose level Low) was 11.1 mg/dL, the Cl (60 mg/kg, 9 h, dose level Low) was 112.8 meq/L and the DBIL (60 mg/kg, 9 h, dose level Low) was 0 mg/dL. The GLC (60 mg/kg, 9 h, dose level Low) was 190.8 mg/dL, the IP (60 mg/kg, 9 h, dose level Low) was 9.5 mg/dL and the K (60 mg/kg, 9 h, dose level Low) was 4 meq/L. It also gave an LDH (60 mg/kg, 9 h, dose level Low) of 158.2 IU/L, a Na (60 mg/kg, 9 h, dose level Low) of 140 meq/L and a PL (60 mg/kg, 9 h, dose level Low) of 133.4 mg/dL. It also gave an RALB (60 mg/kg, 9 h, dose level Low) of 3.3 g/dL, a TBIL (60 mg/kg, 9 h, dose level Low) of 0.026 mg/dL and a TC (60 mg/kg, 9 h, dose level Low) of 81.8 mg/dL. It also gave a TG (60 mg/kg, 9 h, dose level Low) of 35.4 mg/dL, a TP (60 mg/kg, 9 h, dose level Low) of 5.9 g/dL and a gamma-GTP (60 mg/kg, 9 h, dose level Low) of 1 IU/L. It also gave a TERMINAL_BW (60 mg/kg, 24 h, dose level Low) of 217.9 g, an APTT (60 mg/kg, 24 h, dose level Low) of 20.2 s and a Bas (60 mg/kg, 24 h, dose level Low) of 0%. The Eos (60 mg/kg, 24 h, dose level Low) was 0.8%, the Fbg (60 mg/kg, 24 h, dose level Low) was 303.8 mg/dL and the Ht (60 mg/kg, 24 h, dose level Low) was 40.5%. The MCH (60 mg/kg, 24 h, dose level Low) was 20.9 pg, the MCHC (60 mg/kg, 24 h, dose level Low) was 33.3% and the MCV (60 mg/kg, 24 h, dose level Low) was 62.6 fL. The Mono (60 mg/kg, 24 h, dose level Low) was 1.6%, the PT (60 mg/kg, 24 h, dose level Low) was 16.7 s and the Plat (60 mg/kg, 24 h, dose level Low) was 117.7 x10_4/uL. The RBC (60 mg/kg, 24 h, dose level Low) was 647 x10_4/ul, the Ret (60 mg/kg, 24 h, dose level Low) was 7.7% and the WBC (60 mg/kg, 24 h, dose level Low) was 86.4 x10_2/uL. For the same molecule, the KIDNEY_L (60 mg/kg, 24 h, dose level Low) was 0.9 g, the KIDNEY_R (60 mg/kg, 24 h, dose level Low) was 1 g and the KIDNEY_TOTAL (60 mg/kg, 24 h, dose level Low) was 1.9 g. The LIVER (60 mg/kg, 24 h, dose level Low) was 9.8 g, the ALP (60 mg/kg, 24 h, dose level Low) was 1708.2 IU/L and the AST (60 mg/kg, 24 h, dose level Low) was 61.2 IU/L. For the same molecule, the BUN (60 mg/kg, 24 h, dose level Low) was 20 mg/dL, the CRE (60 mg/kg, 24 h, dose level Low) was 0.1 mg/dL and the Ca (60 mg/kg, 24 h, dose level Low) was 10.9 mg/dL. The Cl (60 mg/kg, 24 h, dose level Low) was 106.8 meq/L, the DBIL (60 mg/kg, 24 h, dose level Low) was 0 mg/dL and the GLC (60 mg/kg, 24 h, dose level Low) was 179.4 mg/dL. The IP (60 mg/kg, 24 h, dose level Low) was 7.5 mg/dL, the K (60 mg/kg, 24 h, dose level Low) was 4 meq/L and the LDH (60 mg/kg, 24 h, dose level Low) was 156.8 IU/L. It also gave a Na (60 mg/kg, 24 h, dose level Low) of 142.6 meq/L, a PL (60 mg/kg, 24 h, dose level Low) of 136.2 mg/dL and an RALB (60 mg/kg, 24 h, dose level Low) of 3.2 g/dL. It also gave a TBIL (60 mg/kg, 24 h, dose level Low) of 0.01 mg/dL, a TC (60 mg/kg, 24 h, dose level Low) of 73.2 mg/dL and a TG (60 mg/kg, 24 h, dose level Low) of 109.6 mg/dL.
